melting point: 222 to 223 °C
Compound: Cn1ncnc1COc1nc2c(-c3ccccc3)nncc2cc1-c1ccccc1 [Example 1, 3,8-Diphenyl-2-(2-methyl-2H-[1,2,4]triazol-3-ylmethoxy)pyrido[2,3-d]pyridazine]

— patent US6593325B1, “Pyrido-pyridazine derivatives as ligands for GABA receptors” (Merck Sharp & Dohme Ltd., priority 1999, dated 2003)
